Read-outs that look alike come from different tables or passages of the source.
Key:
SARS-CoV-2 [1] = experiment: Antiviral activity test, immunofluorescence high-content imaging, post-infection treatment; assay type: cell-based
[2] = Cytotoxicity test by MTT assay; assay type: cell-based, African green monkey (Cercopithecus aethiops); conditions: African green monkey (Cercopithecus aethiops), Vero E6 cells (kidney epithelial cells, ATCC #C1008), read-out: 50% cytotoxic concentration (CC50)
Experimental: (§1) According to the present disclosure, Vero E6 cells, African green monkey (Cercopithecus aethiops) kidney epithelial cells (ATCC #C1008), were used for the antiviral screening. The cells were grown in Dulbecco's Modified Eagle Medium (DMEM) (Gibco, USA) with 10% fetal bovine serum (FBS) (Gibco, USA). For Vero cells (African green monkey epithelial cells), these cells were cultured in Minimum Essential Medium (MEM) (Gibco, USA) supplemented with 10% FBS and L-glutamine (Gibco, USA). All cultures were grown at 37° C. in 5% CO2 atmosphere and used in the experiments described in the following examples.
(§2) For Cytotoxicity Test by using MTT assay, the Vero E6 cells were cultured in 96-well plates with 10,000 cells per well and kept in an incubator for 24 hours. Then, the cells were incubated with the two active compounds from the B. rotunda extract, Panduratin A and Pinostrobin, in the incubator for 48 hours. When the given time was completed, 100 uL of […] MTT solvent was added and cells were incubated in the incubator for another 3 hours. MTT solvent was removed and 100 uL DMSO was added. Light absorbance was measured at 570 nm by a microplate reader, and 50% cytotoxicity concentration (CC50) was calculated for each replicate.

SARS-CoV-2 [3] = assay type: cell-based
SARS-CoV-2 [4] = experiment: Anti-SARS-CoV-2 effect at the pre-entry phase, high-content imaging; assay type: cell-based; conditions: pre-incubated with virus 1 h, adsorption 2 h on Vero E6, washed, 48 h
Vero E6 cells [5] = conditions: read-out: CC50, pre-entry phase, pre-entry condition
SARS-CoV-2 [6] = experiment: Plaque assay of viral output, pre-entry phase; assay type: cell-based; conditions: 50 μM, FIG. 9
Vero E6 cells [7] = experiment: Cytotoxicity test by MTT assay; assay type: cell-based, African green monkey (Cercopithecus aethiops); conditions: 48 h, read-out: 50% cytotoxic concentration (CC50)
Experimental: as §1, §2

SARS-CoV-2 [8] = experiment: Plaque assay of viral output, post-infection treatment; assay type: cell-based; conditions: FIG. 6
Experimental: Furthermore, the viral output of SARS-CoV-2 in the present disclosure was reported as the infectious titers that were determined by plaque assay. In brief, Vero cell monolayer was seeded into 6-well plate 24 hours before the infection. The cells were inoculated with a serial dilution of the virus and incubated for viral adsorption for 1 hour at 37° C. Then, the cells were overlaid with 3 mL/well of overlay medium containing MEM supplemented with 5% FBS and 1% agarose. To allow plaque to develop, the culture was incubated at 37° C. in 5% CO2 for 3 days. After that, plaque phenotypes were visualized by staining with 0.33% Neutral Red solution (Sigma, USA) for 5 hrs. Plaque numbers were counted and calculated as plaque-forming unit (PFU) per milliliter (mL).

Structure (SMILES)	IC50 (SARS-CoV-2 [1]; Severe acute respiratory syndrome coronavirus 2, Vero C1008, read-out: 50% inhibition concentration (IC50), given in ug/mL beside the uM value)	CC50 at 48 h [2]	IC50 (SARS-CoV-2 [1]; Severe acute respiratory syndrome coronavirus 2, Vero C1008, read-out: 50% inhibition concentration (IC50))	Virus titer (reduced in) (SARS-CoV-2 [3]; 72 h, 25 μM, vehicle 4.5 log PFU/mL)	Virus titer (SARS-CoV-2 [3]; 72 h, 50 μM, vehicle 4.5 log PFU/mL)	IC50 (SARS-CoV-2 [4])	IC50 (SARS-CoV-2 [1]; Vero E6 cells infected 2 h, then treated 48 h (post-infection), read-out: 50% inhibition concentration (IC50))	CC50 (Vero E6 cells [5])	Virus titer (reduced in) (SARS-CoV-2 [3]; 72 h, 5 μM, vehicle 4.5 log PFU/mL)	Reduction of virus titers (result in words) (SARS-CoV-2 [3]; primary human alveolar cells, FIG. 10)	Suppression of the infectious virion production (SARS-CoV-2 [6])	CC50 (Vero E6 cells [7])	Inhibition of coronavirus replication in plaque assay (result in words) (SARS-CoV-2 [8])
CCN(CCO)CCCC(C)Nc1ccnc2cc(Cl)ccc12 (centres unmarked) [Hydroxychloroquine, reference compound]	1.71 µg/mL	> 100 µM											
COc1cc(O)c2c(c1)O[C@H](c1ccccc1)CC2=O [Pinostrobin]		> 100 µM	0.44 µM	3 log PFU/mL	2.0 log PFU/mL								
COc1cc(O)c(C(=O)[C@@H]2[C@H](CC=C(C)C)C(C)=CC[C@H]2c2ccccc2)c(O)c1 [Panduratin A]						5.3 µM	0.81 µM	43.5 µM	3 log PFU/mL	reduced virus titers in a dose-dependent manner	absolutely suppressed	14.7 µM	significantly lower than that of Hydroxychloroquine
